Laboratory results as given in US20250095772A1, “METHOD FOR IMPROVING THROUGHPUT OF COMPOUND-PROTEIN INTERACTION EXPERIMENTS” (SOUTHERN UNIVERSITY OF SCIENCE AND TECHNOLOGY, priority 2022, published 2025).

Columns and labels:
K562 cell lysate [1] = test: Single temperature point TPP target identification, 15 drugs pooled into 9 mixture systems (Example 1); type: binding; conditions: 15 compounds in 9 mixture systems (each in 3), each drug 40 μM, heated at 52° C. for 3 minutes, LASSO β threshold 0.1, — = no target identified
Excerpt: In step S01: Fifteen drugs to be tested (i.e., the compounds to be tested) were given: Palbociclib, Panobinostat, Raltitrexed, Methotrexate, Vemurafenib, Fimepinostat, SCIO-469, SL-327, 5-Fluorouracil, Olaparib, Belumosudil, OTS964, Parthenolide, CCT137690, […], which are sequentially numbered as compound to be tested 1, compound to be tested 2, compound to be tested 3, . . . and compound to be tested 15. It is assumed here that the above fifteen compounds to be tested are mixed into nine mixture systems: mixture system 1, mixture system 2, mixture system 3, . . . and mixture system 9, and each compound to be tested was included in three different mixture systems, that is, m=9, n=15, a=3. The nine mixture systems are mapped into a 9x15 initial permutation matrix A of the compounds to be tested, and the initial permutation matrix A is randomly initialized so that the numerical values in the matrix A are random floating-point numbers between 0 and 1.
The initial permutation matrix A of the compounds to be tested was iteratively optimized through a genetic algorithm to minimize the value of the objective function L; the permutation matrix A is subjected to the binary conversion in step S02 when the value of the objective function L is the minimum to obtain the optimized permutation matrix S (as shown in FIG. 3), the optimized permutation matrix S is the final permutation matrix. […] In FIGS. 2 and 3, the black grid represents the numerical value 1, and the white grid represents the numerical value 0. During the iteration process, the value of the objective function L decreases to a constant value as the number of iterations increases, as shown in FIG. 4. The fifteen compounds to be tested were mixed according to the finally-obtained 9×15 optimized permutation matrix shown in FIG. 3, and nine mixture systems were obtained.
(§1) In step S04: DMSO as a solvent was added to each mixture system in step S03 to enable a concentration of each drug to reach 40 μM, and then the single temperature point TPP method is applied to measure the interaction between each mixture system and the protein. The specific experimental steps are that: equal amounts of K562 cell lysate were mixed with a drug mixture system, incubated at room temperature for 10 minutes, then heated at 52° C. for 3 minutes, and then quickly cooled to 4° C. on a PCR machine. The samples were centrifuged at 21,000 rcf for 20 minutes at 4° C., and the supernatant was collected. According to the mass spectrometry-based proteomics quantification method, each sample was enzymatically digested and TMT labeled, and then the LC-MS mass spectrometry was used for measurement to obtain the content of protein. Based on the principle of the TPP method, the thermal stability of the protein can be improved through a combination with compounds. Therefore, if a protein can interact with the mixed system, then the content of protein measured by mass spectrometry will be higher, and vice versa.
(§2) In step S05: Nine measured values Yi obtained from the interaction between the nine mixture systems and the target protein are marked as response vectors Y; the response vectors Y were normalized so that the numerical values of the response vectors are between 0 and 1. The response vector Y and the permutation matrix S meet a relational expression of:
Where, Yi represents a response value of the ability of the mixture system identified as i among the nine mixture systems to interact with the target protein, and βj is a contribution of the compound to be tested identified as j in the mixture system identified as i to the response value of the mixture system identified as i, βj is a coefficient vector with a length n, and R is a residual vector with a length […].
the LASSO regression method is applied to obtain an optimal solution of β based on the following expression: […]

K562 cell lysate [2] = test: Single temperature point TPP target identification, 25 drugs pooled into 14 mixture systems (Example 2); type: binding; conditions: 25 compounds in 14 mixture systems (each in 4), remaining steps as Example 1 (40 μM, K562 cell lysate, 52° C., LASSO β threshold 0.1); — = no target identified
Description: as §1, with “Based on the principle of the TPP method, the thermal stability of the protein can be improved through a combination with compounds.” left out
as §2
Where, λ is a penalty term, which is used to adjust a compression degree of β, in this embodiment, the value of λ is 0.1 and the threshold is 0.1.
It is assumed that the above twenty-five compounds to be tested are mixed into fourteen mixture systems: mixture system 1, mixture system 2, mixture system 3, . . . and mixture system 14. Each compound to be tested was included in four different mixture systems. That is, m=14, n=25, a=4. […] In FIG. 5, the black grid represents the numerical value of 1, and the white grid represents the numerical value of 0. […] The twenty-five compounds to be tested were mixed according to the finally obtained 14×25 optimized permutation matrix S shown in FIG. 5, to obtain fourteen mixture systems.

Row | Compound | Successfully Identified Target(s) (K562 cell lysate [1]) | Successfully Identified Target(s) (K562 cell lysate [2])
1 | Cc1cc(CN2CCN(c3c(Br)cnc4nc(-c5ccc(N6CCN(C)CC6)cc5)[nH]c34)CC2)no1 [CCT137690] | AURKA | 
2 | COC(=O)N[C@@H](C)CNc1nccc(-c2cn(C(C)C)nc2-c2cc(Cl)cc(NS(C)(=O)=O)c2F)n1 [Encorafenib] |  | BRAF
3 | COc1ccc(-c2nc(N3CCOCC3)c3sc(CN(C)c4ncc(C(=O)NO)cn4)cc3n2)cn1 [Fimepinostat] | HDAC1 | HDAC1
4 | CN(Cc1cnc2nc(N)nc(N)c2n1)c1ccc(C(=O)N[C@@H](CCC(=O)O)C(=O)O)cc1 [Methotrexate] | DHFR | DHFR
5 | O=C(c1cc(Cc2n[nH]c(=O)c3ccccc23)ccc1F)N1CCN(C(=O)C2CC2)CC1 [Olaparib] | PARP1 | PARP1
6 | CC(C)(C)Cn1c(N)nc2ccc(-c3[nH]c(C(C)(C)C)nc3-c3ccc(F)cc3)nc21 [Ralimetinib] | MAPK14 | MAPK14
7 | Cc1nc2ccc(CN(C)c3ccc(C(=O)N[C@@H](CCC(=O)O)C(=O)O)s3)cc2c(=O)[nH]1 [Raltitrexed] | TYMS | TYMS
8 | C[C@@H]1CN(Cc2ccc(F)cc2)[C@@H](C)CN1C(=O)c1cc2c(C(=O)C(=O)N(C)C)cn(C)c2cc1Cl [SCIO-469] | MAPK14 | MAPK14
